This passage reports IC50 results from patent publication US10287301B2 (Achillion Pharmaceuticals, Inc., priority 2015, dated 2019).

Human Factor D, sequence (P00746 26-253): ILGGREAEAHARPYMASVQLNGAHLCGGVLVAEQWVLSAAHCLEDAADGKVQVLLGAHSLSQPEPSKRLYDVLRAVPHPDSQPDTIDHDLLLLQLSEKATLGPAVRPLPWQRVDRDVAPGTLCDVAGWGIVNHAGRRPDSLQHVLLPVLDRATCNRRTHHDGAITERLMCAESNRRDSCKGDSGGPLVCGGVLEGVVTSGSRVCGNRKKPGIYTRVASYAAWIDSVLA

This assay has as its target Human Factor D (Homo sapiens (Human), UniProt P00746). Briefly: Human Factor D Assay. Type of assay: biochemical. The note with it: Human Factor D, Table 3; read-out: IC50. In outline:
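IC50 values derive from nonlinear regression of Factor D reaction rates against compound concentration. The enzyme, purified from human serum, is used at 80 nM final with a 5 min room-temperature compound preincubation in 50 mM Tris, 1M NaCl, pH 7.5, before 100 μM Z-L-Lys-SBzl plus 100 μM DTNB are added.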
With `CC(=O)c1nn(CC(=O)N2C[C@H](F)C[C@H]2C(=O)Nc2cccc(Br)n2)c2ccc(-c3cnc(OC4CS(=O)(=O)C4)nc3)cc12` [Compound 591, (2S,4R)-1-(2-(3-Acetyl-5-(2-((1,1-dioxidothietan-3-yl)oxy)pyrimidin-5-yl)-1H-indazol-1-yl)acetyl)-N-(6-bromopyridin-2-yl)-4-fluoropyrrolidine-2-carboxamide], the IC50 is below 1 µM.

Turning to `CC(=O)c1nn(CC(=O)N2CCCC[C@@H]2C(=O)Nc2cccc(Br)n2)c2ccc(-c3cnc(C)nc3)cc12` [Compound 592, (R)-1-(2-(3-acetyl-5-(2-methylpyrimidin-5-yl)-1H-indazol-1-yl)acetyl)-N-(6-bromopyridin-2-yl)piperidine-2-carboxamide], the IC50 was above 10 µM.

For the compound `CC(=O)c1nn(CC(=O)N2CCCC[C@H]2C(=O)Nc2cccc(Br)n2)c2ccc(-c3cnc(C)nc3)cc12` [Compound 593, (S)-1-(2-(3-Acetyl-5-(2-methylpyrimidin-5-yl)-1H-indazol-1-yl)acetyl)-N-(6-bromopyridin-2-yl)piperidine-2-carboxamide], the IC50 is below 1 µM.

For `CC(=O)c1cn(CCN2C[C@H](F)C[C@H]2C(=O)Nc2cccc(OC(F)(F)F)c2F)c2ccc(-c3cnc(C)nc3)cc12` [Compound 594, (2S,4R)-1-(2-(3-Acetyl-5-(2-methylpyrimidin-5-yl)-1H-indol-1-yl)ethyl)-4-fluoro-N-(2-fluoro-3-(trifluoromethoxy)phenyl)pyrrolidine-2-carboxamide], the 50% inhibitory concentration (IC50) is above 10 µM.

As for `COC(=O)c1ncc(-c2ccc3c(c2)c(C(C)=O)nn3CC(=O)N2C[C@H](F)C[C@H]2C(=O)Nc2cccc(Br)n2)cn1` [Compound 596, methyl 5-(3-Acetyl-1-(2-((2S,4R)-2-((6-bromopyridin-2-yl)carbamoyl)-4-fluoropyrrolidin-1-yl)-2-oxoethyl)-1H-indazol-5-yl)pyrimidine-2-carboxylate], the IC50 was below 1 µM.

As to `CC(=O)Nc1ncc(-c2ccc3c(c2)c(C(C)=O)nn3CC(=O)N2C[C@H](F)C[C@H]2C(=O)Nc2cccc(Br)n2)cn1` [Compound 597, (2S,4R)-1-(2-(5-(2-Acetamidopyrimidin-5-yl)-3-acetyl-1H-indazol-1-yl)acetyl)-N-(6-bromopyridin-2-yl)-4-fluoropyrrolidine-2-carboxamide], the IC50 was below 1 µM.

As to `CC(=O)c1nn(CC(=O)N2C[C@H](F)C[C@H]2C(=O)Nc2cccc(Br)n2)c2ccc(-c3cnc(C(=O)O)nc3)cc12` [Compound 598, 5-(3-Acetyl-1-(2-((2S,4R)-2-((6-bromopyridin-2-yl)carbamoyl)-4-fluoropyrrolidin-1-yl)-2-oxoethyl)-1H-indazol-5-yl)pyrimidine-2-carboxylic acid], the IC50 was below 1 µM.

Take `CC(=O)c1nn(CC(=O)N2C[C@H](F)C[C@H]2C(=O)Nc2cccc(Br)n2)c2ccc(-c3cnc(C(N)=O)nc3)cc12` [Compound 599, 5-(3-Acetyl-1-(2-((2S,4R)-2-((6-bromopyridin-2-yl)carbamoyl)-4-fluoropyrrolidin-1-yl)-2-oxoethyl)-1H-indazol-5-yl)pyrimidine-2-carboxamide]: the IC50 was below 1 µM.

Take `CC(=O)c1nn(CC(=O)N2C[C@H](F)C[C@H]2C(=O)Nc2cccc(-c3ncco3)n2)c2ccc(-c3cnc(C)nc3)cc12` [Compound 600, (2S,4R)-1-(2-(3-Acetyl-5-(2-methylpyrimidin-5-yl)-1H-indazol-1-yl)acetyl)-4-fluoro-N-(6-(oxazol-2-yl)pyridin-2-yl)pyrrolidine-2-carboxamide]: the concentration for half-maximal inhibition (IC50) was below 1 µM.

Consider `CC(=O)c1nn(CC(=O)N2C[C@H](F)C[C@H]2C(=O)Nc2nc(OCC(F)(F)F)ccc2C)c2ccc(-c3cnc(C)nc3)cc12` [Compound 601, (2S,4R)-1-(2-(3-Acetyl-5-(2-methylpyrimidin-5-yl)-1H-indazol-1-yl)acetyl)-4-fluoro-N-(3-methyl-6-(2,2,2-trifluoroethoxy)pyridin-2-yl)pyrrolidine-2-carboxamide], for which the half-maximal inhibitory concentration (IC50) is below 1 µM.

As to `CC(=O)c1nn(CC(=O)N2C[C@H](F)C[C@H]2C(=O)Nc2nc(C(C)(F)F)ccc2C)c2ccc(-c3cnc(C)nc3)cc12` [Compound 602, (2S,4R)-1-(2-(3-Acetyl-5-(2-methylpyrimidin-5-yl)-1H-indazol-1-yl)acetyl)-N-(6-(1,1-difluoroethyl)-3-methylpyridin-2-yl)-4-fluoropyrrolidine-2-carboxamide], the IC50 is below 1 µM.

Take `CC(=O)c1nn(CC(=O)N2[C@@H]3C[C@@H]3C[C@H]2C(=O)Nc2nc(Br)ccc2C2CC2)c2ccc(-c3cnc(C)nc3)cc12` [Compound 603, (1R,3S,5R)-2-(2-(3-Acetyl-5-(2-methylpyrimidin-5-yl)-1H-indazol-1-yl)acetyl)-N-(6-bromo-3-cyclopropyl-pyridin-2-yl)-2-azabicyclo[3.1.0]hexane-3-carboxamide]: the IC50 is below 1 µM.

With `CC(=O)c1nn(CC(=O)N2C[C@H](F)C[C@H]2C(=O)Nc2cccc(Br)n2)c2ccc(-c3cnc(O)nc3)cc12` [Compound 604, (2S,4R)-1-(2-(3-Acetyl-5-(2-hydroxypyrimidin-5-yl)-1H-indazol-1-yl)acetyl)-N-(6-bromopyridin-2-yl)-4-fluoropyrrolidine-2-carboxamide], the IC50 is below 1 µM.

`CC(=O)c1nn(CC(=O)N2C[C@@H]3C[C@@H]3[C@H]2C(=O)Nc2nc(Br)ccc2C)c2ccc(-c3cnc(C)nc3)cc12` [Compound 605, (1S,2S,5R)-3-(2-(3-Acetyl-5-(2-methylpyrimidin-5-yl)-1H-indazol-1-yl)acetyl)-N-(6-bromo-3-methylpyridin-2-yl)-3-azabicyclo[3.1.0]hexane-2-carboxamide]: the IC50 was below 1 µM.

For `COCc1ccc(Br)nc1NC(=O)[C@@H]1C[C@@H](F)CN1C(=O)Cn1nc(C(C)=O)c2cc(-c3cnc(C)nc3)ccc21` [Compound 606, (2S,4R)-1-(2-(3-Acetyl-5-(2-methylpyrimidin-5-yl)-1H-indazol-1-yl)acetyl)-N-(6-bromo-3-(methoxymethyl)pyridin-2-yl)-4-fluoropyrrolidine-2-carboxamide], the IC50 is below 1 µM.

As for `COC(=O)c1ccc(Br)nc1NC(=O)[C@@H]1C[C@@H](F)CN1C(=O)Cn1nc(C(C)=O)c2cc(-c3cnc(C)nc3)ccc21` [Compound 607, Methyl 2-((2S,4R)-1-(2-(3-Acetyl-5-(2-methylpyrimidin-5-yl)-1H-indazol-1-yl)acetyl)-4-fluoropyrrolidine-2-carboxamido)-6-bromonicotinate], the IC50 was below 1 µM.

`CC(=O)c1nn(CC(=O)N2C[C@H](F)C[C@H]2C(=O)Nc2cccc(Br)n2)c2c(C)cc(-c3cnc(C)nc3)cc12` [Compound 608, (2S,4R)-1-(2-(3-Acetyl-7-methyl-5-(2-methylpyrimidin-5-yl)-1H-indazol-1-yl)acetyl)-N-(6-bromopyridin-2-yl)-4-fluoropyrrolidine-2-carboxamide]: the IC50 is below 1 µM.

As to `CC(=O)c1nn(CC(=O)N2C[C@H](F)C[C@H]2C(=O)Nc2cccc(Br)n2)c2cc(C)c(-c3cnc(C)nc3)cc12` [Compound 609, (2S,4R)-1-(2-(3-Acetyl-6-methyl-5-(2-methylpyrimidin-5-yl)-1H-indazol-1-yl)acetyl)-N-(6-bromopyridin-2-yl)-4-fluoropyrrolidine-2-carboxamide], the IC50 is below 1 µM.

As for `CC(=O)c1nn(CC(=O)N2[C@@H]3C[C@@H]3C[C@H]2C(=O)NC2CCN(CC(F)(F)F)C2)c2ccc(-c3cnc(C)nc3)cc12` (stereo partly drawn) [Compound 611, (1R, 3S, 5R)-2-(2-(3-acetyl-5-(2-methylpyrimidin-5-yl)-1H-indazol-1-yl)acetyl)-N-(1-(2,2,2-trifluoroethyl)pyrrolidin-3-yl)-2-azabicyclo [3.1.0] hexane-3-carboxamide], the IC50 is below 1 µM.

Consider `CC(=O)c1nn(CC(=O)N2C[C@H](F)C[C@H]2C(=O)NCC23CC4CC(CC(C4)C2)C3)c2ccc(-c3cnc(C)nc3)cc12` [Compound 612, (2S,4R)-1-(2-(3-Acetyl-5-(2-methylpyrimidin-5-yl)-1H-indazol-1-yl)acetyl)-N-(((3S,5S,7S)-adamantan-1-yl)methyl)-4-fluoropyrrolidine-2-carboxamide], for which the IC50 was below 1 µM.

Regarding `CC(=O)c1nn(CC(=O)N2C[C@H](F)C[C@H]2C(=O)Nc2nc(Br)ccc2C(=O)O)c2ccc(-c3cnc(C)nc3)cc12` [Compound 615, 2-((2S,4R)-1-(2-(3-Acetyl-5-(2-methylpyrimidin-5-yl)-1H-indazol-1-yl)acetyl)-4-fluoropyrrolidine-2-carboxamido)-6-bromonicotinic acid], the IC50 is below 1 µM.

Turning to `CC(=O)c1nn(CC(=O)N2[C@H](C(=O)Nc3nc(Br)ccc3C3CC3)C[C@@]3(C)C[C@@H]23)c2ccc(-c3cnc(C)nc3)cc12` [Compound 616, (1R,3S,5R)-2-(2-(3-Acetyl-5-(2-methylpyrimidin-5-yl)-1H-indazol-1-yl)acetyl)-N-(6-bromo-3-cyclopropyl-pyridin-2-yl)-5-methyl-2-azabicyclo[3.1.0]hexane-3-carboxamide], the half-inhibitory concentration (IC50) was below 1 µM.

Consider `CC(=O)c1nn(CC(=O)N2C3CC[C@@H](C3)[C@H]2C(=O)Nc2nc(Br)ccc2C)c2ccc(-c3cnc(C)nc3)cc12` [Compound 617, (3S,4S)-2-(2-(3-Acetyl-5-(2-methylpyrimidin-5-yl)-1H-indazol-1-yl)acetyl)-N-(6-bromo-3-methylpyridin-2-yl)-2-azabicyclo[2.2.1]heptane-3-carboxamide], for which the half-inhibitory concentration (IC50) is below 1 µM.

On to `CC(=O)c1nn(CC(=O)N2[C@H](C(=O)Nc3nc(Br)ccc3C)C[C@@]3(C)C[C@@H]23)c2ccc(-c3cnc(N)nc3)cc12` [Compound 620, (1R,3S,5R)-2-(2-(3-Acetyl-5-(2-aminopyrimidin-5-yl)-1H-indazol-1-yl)acetyl)-N-(6-bromo-3-methylpyridin-2-yl)-5-methyl-2-azabicyclo[3.1.0]hexane-3-carboxamide], for which the IC50 is below 1 µM.
